Source: patent US20260327222A1, “SULFONAMIDE COMPOUND AND HARMFUL-ARTHROPOD-CONTROLLING COMPOSITION CONTAINING SAME” (SUMITOMO CHEMICAL COMPANY, LIMITED, priority 2022, published 2026)

How the values were obtained:
Format in all cases: in vivo
[1] = system: cotton aphids (Aphis gossypii); test: Test Method 1: cotton aphid foliar spray, cucumber seedlings (Formulation Example 1); details: 500 ppm; spray 10 mL/seedling; 5 days after spraying; 25 °C
Method: (§1) Each test compound is formulated according to the method mentioned in Formulation Example 1 to obtain each formulation, and water containing 0.03% by volume of Shindaine (registered trademark) is added thereto to prepare a diluted solution containing a prescribed concentration of each test compound.
(§2) Approximately 30 cotton aphids (Aphis gossypii) (all stages of life) are released onto cucumber (Cucumis sativus) seedlings (on the developmental stage of the second true leaf) planted in a container. After 1 day, each of the diluted solutions is sprayed over the seedlings in a ratio of 10 mL/seedling. After additional 5 days, the number of the surviving insects is examined and the control value is calculated by the following equation.
(§3) Control value (%)={1−(Cb×Tai)/(Cai×Tb)}×100 • where symbols in the equation represent the following meanings: • Cb: Number of test insects in non-treated area; • Cai: Number of surviving insects at the time of the investigation in non-treated area; • Tb: Number of test insects in treated area; and • Tai: Number of surviving insects at the time of the investigation in treated area.
(§4) Here, the “non-treated area” represents an area where the same treatment procedure as that of the treated area is carried out except for not using each test compound.
The test was carried out by making the prescribed concentration 500 ppm and using the following present compounds as a test compound according to the test method 1.

[2] = system: common cutworm (Spodoptera litura); test: Test Method 3: common cutworm on sprayed cabbage, 2nd instar larvae; details: 500 ppm, spray 20 mL/seedling, 5 days, 25 °C
Method: as §1
(§5) Each of the diluted solutions is sprayed over cabbage (Brassicae oleracea) seedlings (on the developmental stage of the second to third true leaf) planted in a container in a ratio of 20 mL/seedling. Thereafter, the stem and leaf of the seedlings are cut out, and placed in a container lined with a filter paper. Five 2nd instar larvae of common cutworm (Spodoptera litura) are released into the container. After 5 days, the number of the surviving insects is counted, and the mortality of insects is calculated by the following equation.
(§6) Mortality (%)=(1−Number of surviving insects/5)×100
The test was carried out by making the prescribed concentration 500 ppm and using the following present compounds as a test compound according to the test method 3.

[3] = system: diamondback moth (Plutella xylostella); test: Test Example 4 (test method 4): diamondback moth on sprayed cabbage, 2nd instar larvae; details: 500 ppm, spray 20 mL/seedling, 5 days, 25 °C
Method: as §1
as §5, with “diamondback moth (Plutella xylostella)” for “common cutworm (Spodoptera litura)”
as §6
The test was carried out by making the prescribed concentration 500 ppm and using the following present compounds as a test compound according to the test method 4.

[4] = system: common cutworm (Spodoptera litura); test: Test Method 9: common cutworm on sprayed cabbage, 3rd instar larvae (Formulation Example 5); details: 200 ppm, spray 20 mL/seedling, 6 days, 25 °C
Method: (§7) Each test compound is formulated according to the method mentioned in Formulation Example 5 to obtain each formulation, and water containing 0.03% by volume of Shindaine (registered trademark) is added thereto to prepare a diluted solution containing a prescribed concentration of each test compound.
as §5, with “third” for “second”, “fourth” for “third”, “ten 3rd” for “the stem and leaf of the seedlings are cut out, and placed in a container lined with a filter paper. Five 2nd”, “6” for “5”, “counted” for “counted,”
(§8) Mortality (%)=(1−Number of surviving insects/10)×100
The test was carried out by making the prescribed concentration 200 ppm and using the following present compounds as a test compound according to the test method 9.
The test is carried out by making the prescribed concentration 50 ppm and using the following present compounds as a test compound according to the test method 9. As a result of the test, it is possible to confirm an insecticidal effect on common cutworm (Spodoptera litura).

[5] = system: diamondback moth (Plutella xylostella); test: Test Method 10: diamondback moth on sprayed cabbage, 3rd instar larvae (Formulation Example 5); details: spray 20 mL/seedling, 5 days, 25 °C
Method: as §7
Each of the diluted solutions is sprayed over cabbage (Brassicae oleracea) seedlings (on the developmental stage of the third to fourth true leaf) planted in a container in a ratio of 20 mL/seedling. Thereafter, ten 3rd instar larvae of diamondback moth (Plutella xylostella) are released into the container. After 5 days, the number of the surviving insects is counted, and the mortality of insects is calculated by the following equation.
as §8
The test was carried out by making the prescribed concentration 200 ppm and using the following present compounds as a test compound according to the test method 10.
The test was carried out by making the prescribed concentration 50 ppm and using the following present compounds as a test compound according to the test method 10.

[6] = system: western corn rootworm (Diabrotica virgifera virgifera); test: Test Method 5: western corn rootworm on immersed corn seedlings; details: 200 ppm; seedlings immersed 30 seconds; 2nd instar larvae; 5 days; 25 °C
Method: Each test compound is dissolved in 50 μL of a mixed solution of polyoxyethylene sorbitan monococoate and acetone (at a volume ratio of 5:95) per 1 mg of the test compound. Water containing 0.03% by volume of Shindaine (registered trademark) is added thereto to prepare a diluted solution containing a prescribed concentration of each test compound.
Young seedlings of corns (Zea mays) are immersed in each of the diluted solutions for 30 seconds. Thereafter, two seedlings are placed in a petri dish (diameter: 90 mm), and ten 2nd instar larvae of western corn rootworm (Diabrotica virgifera virgifera) are released into the dish. After 5 days, the number of the dead insects is counted, and the mortality of insects is calculated by the following equation.
Mortality (%)=(1−Number of dead insects/10)×100
The test was carried out by making the prescribed concentration 200 ppm and using the following present compounds as a test compound according to the test method 5.

[7] = system: German cockroach (Blattella germanica); test: Test Method 6: German cockroach, coated container contact; details: coating amount 40 mg/m^2; male adults; 3 days; 25 °C
Method: An acetone solution prepared by making the concentration of the test compound 800 ppm is poured into a 50 mL container, and the inner face of the container is uniformly coated with the test compound so as to make the coating amount of 40 mg/m^2, followed by drying.
Five German cockroach (Blattella germanica) male adults are released into the container, and the container is then covered with a lid. After the prescribed time is elapsed, the state of the German cockroach are examined. The mortality of insects is calculated by the following equation.
(§9) Mortality (%)=(Number of dead insects/Number of tested insects)×100
The test was carried out by making the prescribed elapsed time 3 days and using the following present compounds as a test compound according to the test method 6.

[8] = system: houseflies (Musca domestica); test: Test Method 8: housefly, coated container contact; details: coating amount 40 mg/m^2; adult males; 1 day; 25 °C
Method: An acetone solution prepared by making the concentration of the test compound 800 ppm is poured into a 20 mL container, and the inner face of the container is uniformly coated with the test compound so as to make the coating amount of 40 mg/m^2, followed by drying.
Five adult male houseflies (Musca domestica) are released into the container, and the container is then covered with a lid. After the prescribed time is elapsed, the state of the houseflies are examined. The mortality of insects is calculated by the following equation.
as §9
The test was carried out by making the prescribed elapsed time 1 day and using the following present compounds as a test compound according to the test method 8.

[9] = system: cotton aphids (Aphis gossypii); test: Test Method 11: cotton aphid foliar spray, cucumber seedlings (Formulation Example 5); details: spray 10 mL/seedling, 5 days after spraying, 25 °C
Method: as §7
as §2, with “thirty” for “30”
as §3, §4
The test was carried out by making the prescribed concentration 200 ppm and using the following present compounds as a test compound according to the test method 11.
The test was carried out by making the prescribed concentration 50 ppm and using the following present compounds as a test compound according to the test method 11.

[10] = system: common house mosquito (Culex pipiens pallens); test: Test Method 12: common house mosquito larvae in diluted solution; details: 3.5 ppm; final instar larvae; 1 day; 25 °C
Method: Each test compound is formulated according to the method mentioned in Formulation Example 1 to obtain each formulation, and water is added thereto to prepare a diluted solution containing a prescribed concentration of each test compound. […]
The test was carried out by making the prescribed concentration 3.5 ppm and using the following present compounds as a test compound according to the test method 12.

Row | SMILES | control value [1] [%] | mortality [2] [%] | mortality [3] [%] | mortality [4] [%] | mortality ([5]; 50 ppm) [%] | mortality ([5]; 200 ppm) [%] | mortality [6] [%] | mortality of insects [7] [%] | mortality of insects [8] [%] | control value ([9]; 50 ppm) [%] | control value ([9]; 200 ppm) [%] | mortality [10] [%]
1 | CN(C)S(=O)(=O)c1c(-c2ccc(OCC(F)(F)C(F)F)nn2)nc2ccc(I)cn12 [compound 4] | ≥ 90 | ≥ 80 | ≥ 80 | ≥ 80 | ≥ 80 | ≥ 80 | – | – | – | – | – | –
2 | CCNS(=O)(=O)c1c(-c2cnc(OCC(F)(F)C(F)(F)F)cn2)nc2ccc(Br)cn12 [compound 2] | ≥ 90 | ≥ 80 | ≥ 80 | ≥ 80 | ≥ 80 | ≥ 80 | ≥ 80 | ≥ 80 | ≥ 80 | ≥ 90 | ≥ 90 | ≥ 90
3 | CNS(=O)(=O)c1c(-c2cnc(OCC(F)(F)C(F)(F)F)cn2)nc2ccc(Br)cn12 [compound 1] | ≥ 90 | ≥ 80 | ≥ 80 | ≥ 80 | ≥ 80 | ≥ 80 | ≥ 80 | ≥ 80 | ≥ 80 | ≥ 90 | ≥ 90 | ≥ 90
